Data on 31 molecules can be found in patent US8481732B2 (Incyte Corporation, priority 2009, dated 2013).

Usually IC50 stands for the concentration at which inhibition is half-maximal.

The experiment deals with T1, histamine H4 receptor (Homo sapiens, UniProt Q9H3N8).
T1 construct: expressed in transfected cells; host or cells: HEK293SFM cells (membrane preparation)
T1 sequence (Q9H3N8 whole entry): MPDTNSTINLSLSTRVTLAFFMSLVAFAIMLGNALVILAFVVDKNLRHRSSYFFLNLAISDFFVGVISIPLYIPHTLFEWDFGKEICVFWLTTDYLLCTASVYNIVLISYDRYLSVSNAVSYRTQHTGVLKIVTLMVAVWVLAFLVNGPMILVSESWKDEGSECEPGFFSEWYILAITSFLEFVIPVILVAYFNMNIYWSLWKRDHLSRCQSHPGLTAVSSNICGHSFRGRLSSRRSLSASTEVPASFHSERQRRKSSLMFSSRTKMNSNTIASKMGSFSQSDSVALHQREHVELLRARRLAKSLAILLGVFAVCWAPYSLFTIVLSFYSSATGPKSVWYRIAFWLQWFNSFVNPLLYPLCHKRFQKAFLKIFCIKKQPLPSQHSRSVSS
The experiment can be described thus: H4 Membrane Binding Assay (3H-Histamine displacement). Conditions: membranes of recombinant HEK293SFM cells, 10 nM 3H-Histamine, 1.5 hr at room temperature. The essentials:
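Radioligand is [3H]-histamine; 1000× unlabeled ligand sets nonspecific binding. Receptor source: membrane pellets from HEK293SFM cells carrying human H4 or other histamine subtypes (human H1–H3, mouse H4), in 50 mM Tris-HCl pH 7.5. Filtration through PEI-treated GF/B filters, then scintillation counting.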
Consider `CN1CCN(c2cc(-c3ccc4c(c3)CN(C(=O)NC3CCCCC3)CC4)nc(N)n2)CC1` [Example 95, 7-[2-Amino-6-(4-methylpiperazin-1-yl)pyrimidin-4-yl]-N-cyclohexyl-3,4-dihydroisoquinoline-2(1H)-carboxamide], for which the IC50 worked out at 24 nM.
As for `CN1CCN(c2cc(-c3ccc4c(c3)CN(C(=O)N(C)C3CCCCC3)CC4)nc(N)n2)CC1` [Example 81, 7-[2-Amino-6-(4-methylpiperazin-1-yl)pyrimidin-4-yl]-N-cyclohexyl-N-methyl-3,4-dihydroisoquinoline-2(1H)-carboxamide], the IC50 was 163 nM.
`CN1CCN(c2nc(N)nc3cc(C(=O)NC(Cc4cccc(Oc5nsnc5Cl)c4)C(=O)N(C)C)ccc23)CC1` (stereo not shown) [Example 168, 2-Amino-N-[1-{3-[(4-chloro-1,2,5-thiadiazol-3-yl)oxy]benzyl}-2-(dimethylamino)-2-oxoethyl]-4-(4-methylpiperazin-1-yl)quinazoline-7-carboxamide]: the IC50 is 9.6 nM.
`CN1CCN(c2cc(-c3ccc4c(c3)CN(C(=O)Cc3ccc(Cl)nc3)CC4)nc(N)n2)CC1` [Example 108, 4-{2-[(6-Chloropyridin-3-yl)acetyl]-1,2,3,4-tetrahydroisoquinolin-7-yl}-6-(4-methylpiperazin-1-yl)pyrimidin-2-amine]: the IC50 amounted to 33 nM.
In the case of `COC(=O)c1cccc(COc2ccc3c(c2)C(NC(=O)c2ccc4c(N5CCN(C)CC5)nc(N)nc4c2)CCC3)c1` (stereo not shown) [Example 204, Methyl 3-((8-(2-amino-4-(4-methylpiperazin-1-yl)quinazoline-7-carboxamido)-5,6,7,8-tetrahydronaphthalen-2-yloxy)methyl)benzoate], the IC50 came out at 9.3 nM.
As to `CN1CCN(c2cc(-c3ccc4c(c3)CN(C(=O)Nc3cccc(Cl)c3)CC4)nc(N)n2)CC1` [Example 20, 7-[2-Amino-6-(4-methylpiperazin-1-yl)pyrimidin-4-yl]-N-(3-chlorophenyl)-3,4-dihydroisoquinoline-2(1H)-carboxamide], the IC50 was determined as 19.6 nM.
For `CNC(=O)c1ccc(-c2ccc(N3CCc4ccc(-c5cc(N6CCN(C)CC6)nc(N)n5)cc4C3)nc2)cc1` [Example 19, 4-{6-[7-[2-Amino-6-(4-methylpiperazin-1-yl)pyrimidin-4-yl]-3,4-dihydroisoquinolin-2(1H)-yl]pyridin-3-yl}-N-methylbenzamide], the IC50 was determined as 508 nM.
`CN1CCN(c2nc(N)nc3cc(C(=O)NC(Cc4cccc(OCc5cccc(C#N)c5)c4)C(=O)N(C)C)ccc23)CC1` (stereo not shown) [Example 175, 2-Amino-N-[1-{3-[(3-cyanobenzyl)oxy]benzyl}-2-(dimethylamino)-2-oxoethyl]-4-(4-methylpiperazin-1-yl)quinazoline-7-carboxamide]: the IC50 is 18 nM.
For the molecule `COc1ccc([C@@H](C)NC(=O)c2ccc3c(N4CCN(C)CC4)nc(N)nc3c2)cc1` [Example 30, 2-Amino-N-[(1R)-1-(4-methoxyphenyl)ethyl]-4-(4-methylpiperazin-1-yl)quinazoline-7-carboxamide], the IC50 was 492 nM.
For `CC(NC(=O)c1ccc2c(N3CCN(C)CC3)nc(N)nc2c1)c1cccc(Oc2ccc(Cl)cc2C#N)c1` (stereo not shown) [Example 197, 2-Amino-N-{1-[3-(4-chloro-2-cyanophenoxy)phenyl]ethyl}-4-(4-methylpiperazin-1-yl)quinazoline-7-carboxamide], the half-inhibitory concentration (IC50) stood at 7.1 nM.
For `CN1CCN(c2cc(-c3ccc4c(c3)CN(C(=O)CC3CCC3)CC4)nc(N)n2)CC1` [Example 109, 4-[2-(Cyclobutylacetyl)-1,2,3,4-tetrahydroisoquinolin-7-yl]-6-(4-methylpiperazin-1-yl)pyrimidin-2-amine] the value was 9.6 nM; for `CN1CCN(c2cc(-c3ccc4c(c3)CN(S(=O)(=O)c3ccccc3)CC4)nc(N)n2)CC1` [Example 4, 4-(4-Methylpiperazin-1-yl)-6-[2-(phenylsulfonyl)-1,2,3,4-tetrahydroisoquinolin-7-yl]pyrimidin-2-amine], 267 nM.
With `CC(C)CC(=O)N1CCc2ccc(-c3cc(N4CCN(C)CC4)nc(N)n3)cc2C1` [Example 100, 4-[2-(3-Methylbutanoyl)-1,2,3,4-tetrahydroisoquinolin-7-yl]-6-(4-methylpiperazin-1-yl)pyrimidin-2-amine], the IC50 came to 45 nM.
The same measure for `CN1CCN(c2nc(N)nc3cc(C(=O)NC(C)(C)c4ccccc4)ccc23)CC1` [Example 23, 2-Amino-N-(1-methyl-1-phenylethyl)-4-(4-methylpiperazin-1-yl)quinazoline-7-carboxamide]: 384 nM.
With `CCOC(=O)[C@H](CCc1ccccc1)NC(=O)c1ccc2c(N3CCN(C)CC3)nc(N)nc2c1` [Example 130, Ethyl (2S)-2-({[2-amino-4-(4-methylpiperazin-1-yl)quinazolin-7-yl]carbonyl}amino)-4-phenylbutanoate], the IC50 stood at 71 nM.
Consider `CC(C)Oc1ccc(C[C@@H](C#N)NC(=O)c2ccc3c(N4CCN(C)CC4)nc(N)nc3c2)cc1` [Example 137], for which the IC50 came out at 42 nM.
On to `CN1CCN(c2cc(-c3ccc4c(c3)CN(C(=O)CC(C)(C)C#N)CC4)nc(N)n2)CC1` [Example 121, 4-[7-[2-Amino-6-(4-methylpiperazin-1-yl)pyrimidin-4-yl]-3,4-dihydroisoquinolin-2(1H)-yl]-2,2-dimethyl-4-oxobutanenitrile], for which the IC50 was 39 nM.
For `CN1CCN(c2cc(-c3ccc4c(c3)CN(C(=O)Nc3nccs3)CC4)nc(N)n2)CC1` [Example 88, 7-[2-Amino-6-(4-methylpiperazin-1-yl)pyrimidin-4-yl]-N-1,3-thiazol-2-yl-3,4-dihydroisoquinoline-2(1H)-carboxamide] the value was 135 nM.
In the case of `CC(NC(=O)N1CCc2ccc(-c3cc(N4CCN(C)CC4)nc(N)n3)cc2C1)c1cccnc1` (stereo not shown) [Example 126, 7-[2-Amino-6-(4-methylpiperazin-1-yl)pyrimidin-4-yl]-N-(1-pyridin-3-ylethyl)-3,4-dihydroisoquinoline-2(1H)-carboxamide], the IC50 was found to be 569 nM.
Take `CN1CCN(c2cc(-c3ccc4c(c3)CN(C(=O)Nc3ccccc3)CC4)nc(N)n2)CC1` [Example 12, 7-[2-Amino-6-(4-methylpiperazin-1-yl)pyrimidin-4-yl]-N-phenyl-3,4-dihydroisoquinoline-2(1H)-carboxamide]: the IC50 stood at 23.4 nM.
On to `CN1CCN(c2cc(-c3ccc4c(c3)CN(C(=O)C3CCCCC3)CC4)nc(N)n2)CC1` [Example 105, 4-[2-(Cyclohexylcarbonyl)-1,2,3,4-tetrahydroisoquinolin-7-yl]-6-(4-methylpiperazin-1-yl)pyrimidin-2-amine], for which the half-maximal inhibitory concentration (IC50) came to 81 nM.
For `CN1CCN(c2cc(-c3ccc4c(c3)CN(C(=O)Nc3ccc(Oc5ccccc5)cc3)CC4)nc(N)n2)CC1` [Example 96, 7-[2-Amino-6-(4-methylpiperazin-1-yl)pyrimidin-4-yl]-N-(4-phenoxyphenyl)-3,4-dihydroisoquinoline-2(1H)-carboxamide], the 50% inhibitory concentration (IC50) worked out at 52 nM.
The same measure for `CN1CCN(c2cc(-c3ccc4c(c3)CN(C(=O)OC3CCN(C(=O)OC5CCCC5)CC3)CC4)nc(N)n2)CC1` [Example 69, 1-[(Cyclopentyloxy)carbonyl]piperidin-4-yl 7-[2-amino-6-(4-methylpiperazin-1-yl)pyrimidin-4-yl]-3,4-dihydroisoquinoline-2(1H)-carboxylate]: 33 nM; for `Cc1cnc(C)c(Oc2cccc(CNC(=O)c3ccc4c(N5CCN(C)CC5)nc(N)nc4c3)c2)n1` [Example 187, 2-Amino-N-{3-[(3,6-dimethylpyrazin-2-yl)oxy]benzyl}-4-(4-methylpiperazin-1-yl)quinazoline-7-carboxamide]: 41 nM.
In the case of `CN1CCN(c2cc(-c3ccc4c(c3)CN(C(=O)N[C@H]3C[C@@H]3c3ccccc3)CC4)nc(N)n2)CC1` (relative stereo) [Example 49, 7-[2-Amino-6-(4-methylpiperazin-1-yl)pyrimidin-4-yl]-N-(trans-2-phenylcyclopropyl)-3,4-dihydroisoquinoline-2(1H)-carboxamide], the IC50 worked out at 47 nM.
For `CC(Oc1cccc(CC(NC(=O)c2ccc3c(N4CCN(C)CC4)nc(N)nc3c2)C(=O)N(C)C)c1)c1cccc(C(F)(F)F)c1` (stereo not shown) [Example 176, 2-Amino-N-[2-(dimethylamino)-2-oxo-1-(3-{1-[3-(trifluoromethyl)phenyl]ethoxy}benzyl)ethyl]-4-(4-methylpiperazin-1-yl)quinazoline-7-carboxamide] the value was 51 nM.
As to `CC(C)Cc1ccc(C(C)NC(=O)c2ccc3c(N4CCN(C)CC4)nc(N)nc3c2)cc1` (stereo not shown) [Example 28, 2-Amino-N-[1-(4-isobutylphenyl)ethyl]-4-(4-methylpiperazin-1-yl)quinazoline-7-carboxamide], the IC50 turned out to be 171 nM.
As to `CN1CCN(c2cc(-c3cc4c(cc3F)CCN(C(=O)Nc3ccc(Cl)cc3)C4)nc(N)n2)CC1` [Example 75, 7-[2-Amino-6-(4-methylpiperazin-1-yl)pyrimidin-4-yl]-N-(4-chlorophenyl)-6-fluoro-3,4-dihydroisoquinoline-2(1H)-carboxamide], the IC50 is 44 nM.
With `COC(=O)c1ccc(COc2ccc3c(c2)C(NC(=O)c2ccc4c(N5CCN(C)CC5)nc(N)nc4c2)CCC3)cc1` (stereo not shown) [Example 206, Methyl 4-((8-(2-amino-4-(4-methylpiperazin-1-yl)quinazoline-7-carboxamido)-5,6,7,8-tetrahydronaphthalen-2-yloxy)methyl)benzoate], the IC50 was determined as 24 nM.
`Cc1cc2c(cc1-c1cc(N3CCN(C)CC3)nc(N)n1)CN(C(=O)NC1CCCCC1)CC2` [Example 78, 7-[2-Amino-6-(4-methylpiperazin-1-yl)pyrimidin-4-yl]-N-cyclohexyl-6-methyl-3,4-dihydroisoquinoline-2(1H)-carboxamide]: the IC50 came to 250 nM.
On to `Cc1cccc(Oc2cccc(CNC(=O)c3ccc4c(N5CCN(C)CC5)nc(N)nc4c3)c2)c1C#N` [Example 189, 2-Amino-N-[3-(2-cyano-3-methylphenoxy)benzyl]-4-(4-methylpiperazin-1-yl)quinazoline-7-carboxamide], for which the IC50 stood at 6.6 nM.
